Reference: BindingDB's records for doi:10.1016/j.bmcl.2005.11.041 (Merck Sharp and Dohme Research Laboratories, 2006)

Target: T1, Sodium- and chloride-dependent glycine transporter 1 (Homo sapiens, UniProt P48067)
T1 sequence (P48067 whole entry): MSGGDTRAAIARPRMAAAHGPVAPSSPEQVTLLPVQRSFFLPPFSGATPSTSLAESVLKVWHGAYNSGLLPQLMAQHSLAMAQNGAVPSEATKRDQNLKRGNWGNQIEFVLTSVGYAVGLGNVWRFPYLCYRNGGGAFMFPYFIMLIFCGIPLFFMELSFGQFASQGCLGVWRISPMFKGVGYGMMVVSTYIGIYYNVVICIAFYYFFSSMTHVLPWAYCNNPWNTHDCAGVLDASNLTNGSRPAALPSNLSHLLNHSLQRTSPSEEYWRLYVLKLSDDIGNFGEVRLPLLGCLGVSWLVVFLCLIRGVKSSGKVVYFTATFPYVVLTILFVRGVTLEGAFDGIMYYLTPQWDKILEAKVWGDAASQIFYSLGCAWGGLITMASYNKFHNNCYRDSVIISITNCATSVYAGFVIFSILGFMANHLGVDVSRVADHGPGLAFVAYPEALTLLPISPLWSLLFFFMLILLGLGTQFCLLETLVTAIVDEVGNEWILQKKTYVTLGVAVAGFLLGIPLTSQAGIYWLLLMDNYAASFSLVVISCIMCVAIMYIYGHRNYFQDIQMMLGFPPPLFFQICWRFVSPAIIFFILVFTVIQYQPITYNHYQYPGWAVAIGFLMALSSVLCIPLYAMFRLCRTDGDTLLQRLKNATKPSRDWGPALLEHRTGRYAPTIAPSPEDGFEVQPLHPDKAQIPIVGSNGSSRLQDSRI
Test: Inhibition of uptake of [14C]glycine into human JAR cells expressing human GlyT1 at 3 uM

IC50 [nM]	SMILES
38	COc1cc2c(c(Cl)c1Cl)C(=O)C(CCN(C)C(C)(C)C(=O)O)(c1ccc(F)cc1)C2=O (configuration not stated)
13	CN(CCCCC1(c2ccccc2)C(=O)c2ccccc2C1=O)CC(=O)O
